Test results from US20030232400A1, “Methods of screening subjects for expression of soluble receptors of vascular endothelial growth factor (VEGF) for use in managing treatment and determining prognostic outcome” (priority 2002, published 2003).
Entries after “also recorded” stand apart in the source; their conditions may differ.

Experiments:
[1] = tested on: late-stage metastatic breast cancer; experiment: Phase II monotherapy trial RPI0001, tumor response; type: in vivo, human
Description: (§1) In a Phase II monotherapy ANGIOZYME trial, 45 late-stage metastatic breast cancer patients who had failed multiple prior treatments received 100 mg/m^2 ANGIOZYME by daily SC injection. Due of the critical nature of the disease, most progressed and discontinued drug at the first evaluation (week 6). […] Clinical and biomarker results are summarized.
(§2) In RPI0001, ANGIOZYME monotherapy decreased sVEGFR-1 levels in the metastatic breast cancer setting, although there were no responses in this late-stage disease population.

[2] = Preclinical absorption after subcutaneous administration; type: in vivo; conditions: subcutaneous (SC) administration
From the text: (§3) A reduction of metastasis in a human KM12 colorectal cancer xenograft and reduced metastasis and increase in survival in the murine mammary (4T1) model were also observed with ANGIOZYME treatment.

[3] = tested on: LLC-HM primary tumor; experiment: LLC-HM primary tumor model, preclinical studies in mice; type: in vivo
[4] = tested on: sVEGFR-1; experiment: Phase II monotherapy trial RPI0001, sVEGFR-1 level; type: in vivo, human; conditions: monotherapy 100 mg/m^2 daily SC, metastatic breast cancer patients, by week 6
Description: as §1, §2

[5] = 13-week toxicology studies; type: in vivo; conditions: doses up to 300 mg/m^2/d
[6] = tested on: murine mammary (4T1) model; experiment: Murine mammary (4T1) model; type: in vivo
From the text: as §3

[7] = Phase II study RPI0003 (IFL + ANGIOZYME), adverse events; type: in vivo, human
Description: Beginning on study day 4, patients received daily doses of 100 mg/m^2 ANGIOZYME by subcutaneous injection. Unidimensional tumor measurements were obtained from CT scans after 12 and 24 weeks of treatment. Responses were then confirmed 4 weeks following initial response. ANGIOZYME treatment continued until disease progression.
Adverse event reporting for RPI0003 is ongoing for the 6 patients continuing to receive ANGIOZYME in the maintenance protocolis. […] One patient has discontinued RPI0003 due to an ISR.
Of the MedDRA organ system classes most likely to be affected by antiangiogenic drugs, only the vascular complications (DVT/PE) may appear in excess in this study. […] This observation was communicated to the FDA in September, 2002. Patients continue in the maintenance trial with all PEs and DVTs being classified as serious and ANGIOZYME-related to ensure complete reporting of these events.

[8] = tested on: human KM12 colorectal cancer xenograft; experiment: Human KM12 colorectal cancer xenograft, metastasis; type: in vivo, mice
From the text: as §3

[9] = tested on: HEY ovarian, SK-MEL-1 melanoma and ACHN renal carcinoma cell lines; experiment: Murine dermis model, peritumoral vessels; type: in vivo
[10] = Phase I clinical trials, tolerability; type: in vivo, human; conditions: doses up to 300 mg/m^2 administered IV or SC
[11] = tested on: metastatic colorectal cancer; conditions: cited from earlier work

Substance: ANGIOZYME: stabilized ribozyme that targets the pre-mRNA of vascular endothelial growth factor receptor-1 (VEGFR-1); structure in FIG. 8 (GAGUUGCUGAUGAGGCCGAAAGGCCGAAAGUCUG; stabilized ribozyme, chemical modifications not given here)
- tumor responses [1]: no responses
- absorption [2]: well absorbed
- growth of the LLC-HM primary tumor [3]: inhibited the growth of the LLC-HM primary tumor in a dose-dependent manner
- mean vascular density in tumor sections ([3]; LLC-HM model): decreased
- number of lung metastases ([3]; LLC-HM model): reduced
- change in sVEGFR-1 [4]: significant decrease; also recorded: decreased
- tolerability [5]: well tolerated
- metastasis [6]: reduced
- survival [6]: increase
- patients discontinued due to an injection site reaction (ISR) ([7]; RPI0003): One
- tolerability ([7]; RPI0003, daily SC injection in combination with IFL): well tolerated
- toxicity added to the chemotherapy ([7]; RPI0003, with the possible exception of increased vascular complications): added no toxicity
- most frequent adverse experiences ([7]; RPI0003 and all other ANGIOZYME studies): injection site reactions
- metastasis [8]: reduction
- interaction with interferon treatment [9]: synergistic
- number of peritumoral vessels ([9]; HEY, SK-MEL-1, ACHN cell lines): reduced
- tolerability [10]: well tolerated

Substance: irinotecan/5-fluorouracil/leucovorin [IFL]
- response rate ([11]; IFL alone, patients who received IFL, good performance status, CT at 12 or 24 weeks): ~40%
- Median time to progression (TTP) ([11]; IFL arm of the Pharmacia study): > 7.0 months
- At least Stable at Week 12 ([11]; N = 192, Pharmacia 0038): 83%
- At least Stable at Week 24 ([11]; N = 192, Pharmacia 0038): 80%
- Best Overall Response (Week 24) ([11]; N = 192, Pharmacia 0038): 37%
- Best Overall Response, Confirmed at Week 12 ([11]; N = 192, Pharmacia 0038): 35%
- Best Overall Response, Unconfirmed at Week 12 ([11]; N = 192, Pharmacia 0038): 48%
- Discontinued by Week 12 Due to Disease Progression ([11]; N = 192, Pharmacia 0038): 12%
